One may read the IC50 as the concentration that inhibits the measured activity by half. Low readings indicate higher potency, high ones lower potency. Broadly, the EC50 is the concentration at which the effect is half-maximal.

Assay [1] has as its target T1, fructose1,6-diphosphatase (FBPase).
T1 construct: gene FBP1
Briefly: Malachite Green phosphate-release assay with D-fructose-1,6-diphosphate. The assay is classed as biochemical.

For assay [2], the target named is T2, glycogen phosphorylase (GPPase) (Oryctolagus cuniculus, UniProt P00489).
T2 construct: gene PYGM
T2 sequence (P00489 2-843): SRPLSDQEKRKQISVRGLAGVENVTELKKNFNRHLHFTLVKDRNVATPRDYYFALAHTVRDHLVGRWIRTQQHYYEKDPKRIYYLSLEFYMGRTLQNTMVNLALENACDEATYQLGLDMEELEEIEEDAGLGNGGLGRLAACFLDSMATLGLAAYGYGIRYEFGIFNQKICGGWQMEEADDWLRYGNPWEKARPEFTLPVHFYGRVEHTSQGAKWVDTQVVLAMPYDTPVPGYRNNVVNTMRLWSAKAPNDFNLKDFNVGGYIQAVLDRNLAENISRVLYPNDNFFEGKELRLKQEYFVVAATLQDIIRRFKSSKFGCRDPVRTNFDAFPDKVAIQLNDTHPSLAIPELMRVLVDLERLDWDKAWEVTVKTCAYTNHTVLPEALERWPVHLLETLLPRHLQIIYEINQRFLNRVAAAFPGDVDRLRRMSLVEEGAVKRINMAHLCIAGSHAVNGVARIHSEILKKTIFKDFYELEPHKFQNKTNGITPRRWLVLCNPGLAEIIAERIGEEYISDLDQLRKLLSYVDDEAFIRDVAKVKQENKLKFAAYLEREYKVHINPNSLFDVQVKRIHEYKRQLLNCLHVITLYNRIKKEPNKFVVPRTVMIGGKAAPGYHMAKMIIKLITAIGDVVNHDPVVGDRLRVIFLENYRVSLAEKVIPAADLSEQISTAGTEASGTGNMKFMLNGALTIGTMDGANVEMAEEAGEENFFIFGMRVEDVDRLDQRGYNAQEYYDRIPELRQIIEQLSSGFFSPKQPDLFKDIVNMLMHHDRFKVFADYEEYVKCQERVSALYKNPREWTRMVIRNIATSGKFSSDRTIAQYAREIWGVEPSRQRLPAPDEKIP
Briefly: phosphoglucomutase/G6PDH-coupled spectrophotometric activity assay with glycogen; activation. The class given is biochemical.

With `Nc1ncnc2c1ncn2[C@@H]1O[C@H](COP(=O)(O)O)[C@@H](O)[C@H]1O` [AMP], inhibition in assay [1] was half-maximal at 1.6 µM (IC50). In assay [2], the 50% effective concentration (EC50) amounted to 18.5 µM.

The values are drawn from PMC3398342, “Cyanidin-3-O-β-glucoside regulates fatty acid metabolism via an AMP-activated protein kinase-dependent signaling pathway in human HepG2 cells” (2012).
